Measurements reported in US7307098B2, “Indole derivatives and drugs containing the same” (Meiji Dairies Corporation, priority 2002, dated 2007).

test system: neurospheres which are clusters of neural stem cells; test: Test Example 1: differentiation of neurospheres into neurons (immunofluorescence, confocal microscope); type: cell-based; conditions: Mus musculus, Neural stem cell; test compound 10^−6M, cultivation typically 24 hours, Anti-MAP2 labeling of neurons, control = 100; read-out: Percentage of neuron in relation to control
Description: Neural stem cell was produced from […] in accordance with the method of Weiss and Reynolds (1996). More specifically, striate body was extirpated from mouse embryo, and the cells were dispersed in a culture medium containing EGF (20 ng/mL). The cells were cultured under the conditions of 5% CO2 and 37° C. for 5 days. The culture was then centrifuged at 400 rpm in Dissociation Medium (manufactured by Sigma) for 5 minutes, and neurospheres which are cluster of the neural stem cells were obtained. The neurospheres were dispersed in the culture medium, and cultivation was conducted under the same conditions to produce secondary neurospheres.
A sterilized cover glass was placed in the well of 24 well plate, treated overnight with polyornithine solution (30 μg/mL), and washed three times with phosphate buffered saline. Neurospheres were inoculated on the cover glass at 20 to 50 cells/cover glass. The test compound that has been adjusted to the concentration of 10^−6M with ethanol was applied to the cover glass, and the cultivation was continued for a period sufficient for differentiation of the neurospheres (typically 24 hours). The indole derivatives obtained in the Examples were used for the test compounds, and the control cells were cultivated without using such test compound.
Sufficiently differentiated neurospheres were fixed with 4% p-formaldehyde, washed with phosphate buffered saline, and after adding Triton-X100, washed again with phosphate buffered saline. Anti-MAP2 (2a+2b) (Sigma) which is a mouse monoclonal antibody used for labeling neurons and Anti-O4 (Boeringher) which is a mouse monoclonal antibody used for labeling oligodendrocytes, and Anti-GFAP (DAKO) which is a rabbit monoclonal antibody used for labeling astrocytes were added, and the cultivation was continued at room temperature for 1 hour or overnight at 4° C. Anti-mouse IgM antibody and fluorescence indicator were added, and cultivation was continued at room temperature for 1 hour. After washing with phosphate buffered saline, the cover glass was placed on a confocal microscope to observe the differentiation of the neurospheres.

Compound | activity at 1 µM
COc1ccc2[nH]c(CCCCCCCCCCCCCCCCO)cc2c1 [1-2a, n=16, 16-(5-methoxy-1H-indole-2-yl)-hexadecane-1-ol] | 135%
COc1cccc2[nH]cc(CCCCCCCCCCCCCCCCO)c12 [1-1b, n=16, 16-(4-methoxy-1H-indole-3-yl)-hexadecane-1-ol] | 133%
COc1cccc2[nH]c(CCCCCCCCCCCCCCCCO)cc12 [1-2b, n=16, 16-(4-methoxy-1H-indole-2-yl)-hexadecane-1-ol] | 184%
COc1cccc2[nH]c(CCCCCCCCCCCCCCO)cc12 [1-2b, n=14, 14-(4-methoxy-1H-indole-2-yl)-tetradecane-1-ol] | 147%
COc1cccc2cc(CCCCCCCCCCCCCCCCO)[nH]c12 [1-2c, n=16, 16-(7-methoxy-1H-indole-2-yl)-hexadecane-1-ol] | 128%
COc1ccc2[nH]cc(CCCCCCCCCCCCCCCCCCO)c2c1 [1-1a, n=18, 18-(5-methoxy-1H-indole-3-yl)-octadecane-1-ol] | 169%
COc1ccc2[nH]cc(CCCCCCCCCCCCCCO)c2c1 [1-1a, n=14, 14-(5-methoxy-1H-indole-3-yl)-tetradecane-1-ol] | 143%
COc1ccc2c(CCCCCCCCCCCCCCCCO)c[nH]c2c1 [1-1c, n=16, 16-(6-methoxy-1H-indole-3-yl)-hexadecane-1-ol] | 135%
COc1ccc2[nH]cc(CCCCCCCCCCCCCCCCO)c2c1 [1-1a, n=16, 16-(5-methoxy-1H-indole-3-yl)-hexadecane-1-ol] | 168%
